Measured values taken from patent US10016480B2, “Peptide-based methods for treating pancreatic cancer” (The United States of America, as represented by the …, priority 2014, dated 2018).
No end group written: not given here.

Assay: Serum stability
Assay type: in vitro ADME

stability in serum: stable in serum
Sequence: FAKKFAKKFK [Peptide B, Phe-Ala-Lys-Lys-Phe-Ala-Lys-Lys-Phe-Lys]
